From ChEMBL document CHEMBL5465560, “Selectivity Literature for EUbOPEN Chemogenomic Library” (2024)
Values belong to the molecule of their own block, whether it stands above or below them.

How the values were obtained:
[1] = biological target: Cyclin-dependent kinase 16 (Homo sapiens) (UniProt Q00536); assay: Selectivity interaction (KinomeScan (DiscoverX)) EUB0000666a CDK16; settings: at 10 µM
[2] = biological target: T1, Phosphatidylinositol 5-phosphate 4-kinase type-2 beta (Homo sapiens) (UniProt P78356); assay: Selectivity interaction (KinomeScan (DiscoverX)) EUB0000666a PIP4K2B; settings: at 10 µM
T1 sequence (whole entry): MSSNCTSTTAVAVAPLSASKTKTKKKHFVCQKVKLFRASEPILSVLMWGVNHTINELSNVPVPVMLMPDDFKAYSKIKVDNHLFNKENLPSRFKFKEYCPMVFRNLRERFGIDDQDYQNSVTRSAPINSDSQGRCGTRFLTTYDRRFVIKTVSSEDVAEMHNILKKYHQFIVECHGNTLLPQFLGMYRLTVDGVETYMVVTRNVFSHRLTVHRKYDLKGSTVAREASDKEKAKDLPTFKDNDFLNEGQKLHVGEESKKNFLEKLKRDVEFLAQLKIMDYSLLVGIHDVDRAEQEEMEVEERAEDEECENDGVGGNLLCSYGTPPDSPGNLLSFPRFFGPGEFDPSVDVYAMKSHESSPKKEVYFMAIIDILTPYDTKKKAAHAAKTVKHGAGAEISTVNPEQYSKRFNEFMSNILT

[3] = biological target: T2, Dual specificity protein kinase TTK (Homo sapiens) (UniProt P33981); assay: Selectivity interaction (ProQinase) EUB0000171b TTK
T2 sequence (whole entry): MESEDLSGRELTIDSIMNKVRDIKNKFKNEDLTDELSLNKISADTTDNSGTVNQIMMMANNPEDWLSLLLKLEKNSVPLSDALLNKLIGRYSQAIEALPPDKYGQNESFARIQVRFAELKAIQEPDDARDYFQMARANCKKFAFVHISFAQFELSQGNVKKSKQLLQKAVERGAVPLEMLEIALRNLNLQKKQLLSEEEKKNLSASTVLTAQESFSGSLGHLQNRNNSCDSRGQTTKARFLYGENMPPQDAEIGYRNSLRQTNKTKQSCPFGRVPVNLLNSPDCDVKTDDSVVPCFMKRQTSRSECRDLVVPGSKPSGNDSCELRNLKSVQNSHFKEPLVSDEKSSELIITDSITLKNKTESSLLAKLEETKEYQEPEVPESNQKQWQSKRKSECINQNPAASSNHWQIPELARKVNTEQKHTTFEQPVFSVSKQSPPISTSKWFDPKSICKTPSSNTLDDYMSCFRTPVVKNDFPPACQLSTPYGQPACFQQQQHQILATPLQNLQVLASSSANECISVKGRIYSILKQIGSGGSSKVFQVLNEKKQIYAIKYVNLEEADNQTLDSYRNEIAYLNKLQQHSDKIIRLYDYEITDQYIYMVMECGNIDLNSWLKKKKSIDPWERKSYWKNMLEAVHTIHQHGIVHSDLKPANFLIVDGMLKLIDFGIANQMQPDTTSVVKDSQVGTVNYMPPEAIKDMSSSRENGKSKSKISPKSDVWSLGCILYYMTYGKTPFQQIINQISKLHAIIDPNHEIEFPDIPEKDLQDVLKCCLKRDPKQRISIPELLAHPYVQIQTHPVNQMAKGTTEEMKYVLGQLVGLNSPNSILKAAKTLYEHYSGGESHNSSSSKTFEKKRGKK

[4] = biological target: BDNF/NT-3 growth factors receptor (Homo sapiens) (UniProt Q16620); assay: Selectivity interaction (KinaseProfiler screening (Millipore)) EUB0000601a NTRK2; settings: at 3 µM
Chain of BDNF/NT-3 growth factors receptor (Homo sapiens) (Q16620 32-822 limits assumed): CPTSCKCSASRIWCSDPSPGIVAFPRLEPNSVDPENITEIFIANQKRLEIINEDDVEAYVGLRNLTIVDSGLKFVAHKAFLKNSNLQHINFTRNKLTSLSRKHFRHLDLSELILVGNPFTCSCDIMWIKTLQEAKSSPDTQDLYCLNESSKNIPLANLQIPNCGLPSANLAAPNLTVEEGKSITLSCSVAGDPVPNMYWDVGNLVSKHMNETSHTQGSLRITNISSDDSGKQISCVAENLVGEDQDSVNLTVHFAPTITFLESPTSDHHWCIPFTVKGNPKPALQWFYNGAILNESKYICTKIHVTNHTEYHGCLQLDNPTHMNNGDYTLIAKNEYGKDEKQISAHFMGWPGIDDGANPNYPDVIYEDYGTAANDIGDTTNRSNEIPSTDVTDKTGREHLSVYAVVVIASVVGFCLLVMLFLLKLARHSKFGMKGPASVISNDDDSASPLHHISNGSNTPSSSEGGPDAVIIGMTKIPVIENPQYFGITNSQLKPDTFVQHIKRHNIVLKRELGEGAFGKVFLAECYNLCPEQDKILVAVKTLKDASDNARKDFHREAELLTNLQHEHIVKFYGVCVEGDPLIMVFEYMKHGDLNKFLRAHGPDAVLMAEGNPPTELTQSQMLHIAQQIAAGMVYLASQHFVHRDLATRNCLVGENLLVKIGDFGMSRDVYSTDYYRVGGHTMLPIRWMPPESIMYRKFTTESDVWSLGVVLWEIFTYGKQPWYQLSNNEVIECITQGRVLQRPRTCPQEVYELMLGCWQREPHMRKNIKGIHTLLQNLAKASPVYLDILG

[5] = biological target: T3, Tyrosine-protein kinase TXK (Homo sapiens) (UniProt P42681); assay: Selectivity interaction (KinomeScan (DiscoverX)) EUB0000595a TXK; settings: at 10 µM
T3 sequence (whole entry): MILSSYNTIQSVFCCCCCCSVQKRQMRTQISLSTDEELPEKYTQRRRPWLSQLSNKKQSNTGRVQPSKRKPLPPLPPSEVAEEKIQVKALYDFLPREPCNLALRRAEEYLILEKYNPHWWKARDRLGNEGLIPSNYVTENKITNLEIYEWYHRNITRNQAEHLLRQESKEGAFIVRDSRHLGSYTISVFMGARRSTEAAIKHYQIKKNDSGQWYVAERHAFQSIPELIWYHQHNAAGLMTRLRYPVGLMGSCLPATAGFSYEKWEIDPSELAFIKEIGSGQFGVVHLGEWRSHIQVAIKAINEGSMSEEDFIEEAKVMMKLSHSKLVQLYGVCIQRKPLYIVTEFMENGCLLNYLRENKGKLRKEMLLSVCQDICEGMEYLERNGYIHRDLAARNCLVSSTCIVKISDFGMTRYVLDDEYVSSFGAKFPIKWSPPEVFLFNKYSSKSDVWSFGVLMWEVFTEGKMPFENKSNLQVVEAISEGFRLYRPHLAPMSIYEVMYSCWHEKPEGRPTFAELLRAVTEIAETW

[6] = biological target: Macrophage-stimulating protein receptor (Homo sapiens, UniProt Q04912); assay: Selectivity interaction (KinomeScan (DiscoverX)) EUB0000655a MST1R; settings: at 10 µM
[7] = biological target: Ribosomal protein S6 kinase alpha-5 (Homo sapiens) (UniProt O75582); assay: Selectivity interaction (KinomeScan (DiscoverX)) EUB0000655a RPS6KA5; settings: at 10 µM
Chain of Ribosomal protein S6 kinase alpha-5 (Homo sapiens) (O75582 whole entry, looked up): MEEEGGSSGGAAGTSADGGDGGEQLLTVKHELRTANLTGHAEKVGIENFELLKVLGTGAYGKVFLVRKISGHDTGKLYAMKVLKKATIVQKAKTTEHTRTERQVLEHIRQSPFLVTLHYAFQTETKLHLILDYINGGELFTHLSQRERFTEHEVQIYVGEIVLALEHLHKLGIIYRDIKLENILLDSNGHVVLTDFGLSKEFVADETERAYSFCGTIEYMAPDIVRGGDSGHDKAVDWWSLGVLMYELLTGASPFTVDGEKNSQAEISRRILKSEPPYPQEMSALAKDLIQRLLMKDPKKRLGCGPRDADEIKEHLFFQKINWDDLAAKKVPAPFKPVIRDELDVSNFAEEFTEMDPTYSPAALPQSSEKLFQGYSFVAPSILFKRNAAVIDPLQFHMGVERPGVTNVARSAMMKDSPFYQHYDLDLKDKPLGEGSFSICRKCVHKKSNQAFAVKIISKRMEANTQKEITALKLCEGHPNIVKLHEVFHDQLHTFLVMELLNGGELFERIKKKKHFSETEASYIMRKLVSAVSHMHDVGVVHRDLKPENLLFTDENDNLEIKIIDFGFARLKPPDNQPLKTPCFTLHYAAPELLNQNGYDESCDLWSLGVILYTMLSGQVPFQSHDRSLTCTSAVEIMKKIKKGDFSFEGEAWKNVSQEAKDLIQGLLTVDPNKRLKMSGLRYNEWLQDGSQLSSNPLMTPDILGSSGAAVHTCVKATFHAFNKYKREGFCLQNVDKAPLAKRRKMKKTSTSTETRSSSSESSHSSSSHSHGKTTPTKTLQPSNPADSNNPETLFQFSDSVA

[8] = tested on: eIF-2-alpha kinase GCN2 (Homo sapiens), Q9P2K8 [S808G]; assay: Selectivity interaction (KinomeScan (DiscoverX)) EUB0000045b EIF2AK4
Chain of eIF-2-alpha kinase GCN2 (Homo sapiens), Q9P2K8 [S808G] (Q9P2K8 whole entry S808G): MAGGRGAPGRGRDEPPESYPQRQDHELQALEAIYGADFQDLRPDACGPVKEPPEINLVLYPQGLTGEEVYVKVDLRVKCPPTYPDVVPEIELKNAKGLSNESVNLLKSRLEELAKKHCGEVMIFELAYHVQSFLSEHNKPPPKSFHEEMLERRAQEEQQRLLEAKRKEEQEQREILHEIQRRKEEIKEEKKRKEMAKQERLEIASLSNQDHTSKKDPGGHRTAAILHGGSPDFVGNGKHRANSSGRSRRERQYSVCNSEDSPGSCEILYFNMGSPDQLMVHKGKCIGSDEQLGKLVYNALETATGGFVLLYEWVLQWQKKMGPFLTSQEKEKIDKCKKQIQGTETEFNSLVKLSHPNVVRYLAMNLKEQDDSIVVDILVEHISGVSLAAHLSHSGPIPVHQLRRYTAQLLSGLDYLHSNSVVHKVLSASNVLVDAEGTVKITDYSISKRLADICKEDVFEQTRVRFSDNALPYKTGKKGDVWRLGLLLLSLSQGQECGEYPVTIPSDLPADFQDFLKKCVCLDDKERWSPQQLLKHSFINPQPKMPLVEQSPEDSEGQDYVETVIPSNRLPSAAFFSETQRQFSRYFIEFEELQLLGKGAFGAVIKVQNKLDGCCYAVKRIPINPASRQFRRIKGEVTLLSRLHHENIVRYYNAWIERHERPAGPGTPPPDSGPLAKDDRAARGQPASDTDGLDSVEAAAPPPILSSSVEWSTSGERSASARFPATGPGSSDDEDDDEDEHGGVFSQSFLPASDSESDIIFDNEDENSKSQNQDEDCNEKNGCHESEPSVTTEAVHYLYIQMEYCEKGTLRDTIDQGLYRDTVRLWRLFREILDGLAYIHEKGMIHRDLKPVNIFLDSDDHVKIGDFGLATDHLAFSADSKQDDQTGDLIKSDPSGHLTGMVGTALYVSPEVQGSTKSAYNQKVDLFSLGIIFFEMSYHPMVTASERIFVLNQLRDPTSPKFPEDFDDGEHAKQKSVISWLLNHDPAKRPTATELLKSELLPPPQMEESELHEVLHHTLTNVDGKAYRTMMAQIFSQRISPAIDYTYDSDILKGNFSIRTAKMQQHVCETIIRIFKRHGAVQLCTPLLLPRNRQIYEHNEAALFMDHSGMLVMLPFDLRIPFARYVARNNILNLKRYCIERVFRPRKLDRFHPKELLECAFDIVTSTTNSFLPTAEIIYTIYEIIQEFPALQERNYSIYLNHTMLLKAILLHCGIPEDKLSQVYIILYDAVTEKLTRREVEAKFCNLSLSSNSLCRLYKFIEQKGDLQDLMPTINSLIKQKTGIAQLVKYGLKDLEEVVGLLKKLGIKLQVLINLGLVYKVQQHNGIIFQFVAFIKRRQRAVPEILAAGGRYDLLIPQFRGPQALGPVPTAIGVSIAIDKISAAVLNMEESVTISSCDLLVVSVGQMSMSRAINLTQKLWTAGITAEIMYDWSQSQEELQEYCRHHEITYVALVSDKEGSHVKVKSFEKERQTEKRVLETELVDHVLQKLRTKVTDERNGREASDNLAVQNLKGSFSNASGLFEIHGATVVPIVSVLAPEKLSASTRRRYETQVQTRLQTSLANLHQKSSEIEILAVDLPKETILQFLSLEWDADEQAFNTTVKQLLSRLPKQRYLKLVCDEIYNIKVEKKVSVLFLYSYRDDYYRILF

Chain of Cyclin-dependent kinase 16 (Homo sapiens) (Q00536 whole entry): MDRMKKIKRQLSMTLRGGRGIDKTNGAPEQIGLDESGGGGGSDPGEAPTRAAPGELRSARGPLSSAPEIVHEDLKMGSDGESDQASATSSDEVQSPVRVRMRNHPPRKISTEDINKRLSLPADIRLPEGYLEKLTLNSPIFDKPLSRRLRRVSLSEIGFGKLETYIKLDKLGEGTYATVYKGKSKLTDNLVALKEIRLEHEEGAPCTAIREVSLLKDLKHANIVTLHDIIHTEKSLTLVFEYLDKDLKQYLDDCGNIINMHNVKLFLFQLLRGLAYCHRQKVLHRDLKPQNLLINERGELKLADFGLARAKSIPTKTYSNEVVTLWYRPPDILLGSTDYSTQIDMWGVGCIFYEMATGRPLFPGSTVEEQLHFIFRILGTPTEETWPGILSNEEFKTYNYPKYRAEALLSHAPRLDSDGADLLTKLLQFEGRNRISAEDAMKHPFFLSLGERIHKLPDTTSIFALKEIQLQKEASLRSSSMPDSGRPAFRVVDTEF

Structure (SMILES): O=C(NOC[C@H](O)CO)c1ccc(F)c(F)c1Nc1ccc(I)cc1F
% of control [1]: 100%
% of control [2]: 100%

% of control ([3]; at 1 µM): 72%
% of control ([3]; at 5 µM): 34%
Structure (SMILES): C=CC(=O)Nc1cccc(C(=O)Nc2ccc(Nc3cc(-c4[nH]c(SC)nc4C)ccn3)cc2)c1

% of inhibition [4]: 47%
Structure (SMILES): CCc1cc(Nc2nccc(-c3c(-c4ccc(OC)c(C(=O)Nc5c(F)cccc5F)c4)nc4ccccn34)n2)c(OC)cc1N1CCC(N2CCN(S(C)(=O)=O)CC2)CC1

Structure (SMILES): COCC(=O)NC/C=C/c1ccc2ncnc(Nc3ccc(Oc4ccc(C)nc4)c(C)c3)c2c1 [CP-724714]
% of control [5]: 84%

Structure (SMILES): CN(C)CCOc1ccc(-c2nc(-c3ccncc3)c(-c3ccc4c(c3)CC/C4=N\O)[nH]2)cc1
% of control [6]: 100%
% of control [7]: 100%

Structure (SMILES): C=CC(=O)Nc1cc(-n2c(=O)ccc3cnc4ccc(-c5ccc(NS(C)(=O)=O)cc5)cc4c32)ccc1C
% of control ([8]; at 1 µM): 100%
% of control ([8]; at 10 µM): 84%
